Experimental findings from patent US12162863B2, “Modulators of stimulator of interferon genes (STING)” (RYVU THERAPEUTICS S.A., priority 2018, dated 2024) are described below.

One assay has as its target human STING (Homo sapiens, UniProt Q86WV6). As to the kind of experiment: Fluorescence Thermal Shift assay. Type of assay: binding. As to conditions: 50 μM compound; STING 0.1 mg/ml; 20 minutes preincubation; read-out: [hSTING] FTS, ΔTm [° C.] for 50 μM. In short, it runs like this:
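Human STING at a final 0.1 mg/ml was preincubated with compound for 20 min in 50 mM Hepes, 150 mM NaCl, pH 7.5, then SyproOrange dye was added. Thermal unfolding ran from 25 to 99° C at 0.033° C/s, continuous ramp. Values are reported as ΔTm (° C).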

In assay [1] the test system is interferon regulatory factor (IRF) pathway in THP-1 dual cells. In words: THP-1 Dual Reporter Assay, IRF pathway (luciferase reporter). Type of assay: cell-based. The note with it: Homo sapiens, THP1-Dual, 18 h of stimulation, luminescence. In short, it runs like this: (§1)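 THP-1 dual cells stimulated 18 h with STING agonist; medium then sampled. IRF pathway: luciferase (ISG54 promoter/ISRE) read as luminescence immediately after reagent addition. NF-κB pathway: SEAP (IFN-β minimal promoter/NF-κB elements) developed 2 h at 37 °C, absorbance at 630 nm.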
(Reporter assays use an easily measured gene product as a stand-in for the process of interest.)

Assay [2] relates to NF-κB pathway in THP-1 dual cells. As to the kind of experiment: THP-1 Dual Reporter Assay, NF-κB pathway (SEAP reporter). The class given is cell-based. As to conditions: Homo sapiens, THP1-Dual, 18 h of stimulation, absorbance at 630 nm, read-out: THP1 Dual EC50 (μM) NFkB. In short, it runs like this: as §1

human STING, sequence (Q86WV6 whole entry H232R): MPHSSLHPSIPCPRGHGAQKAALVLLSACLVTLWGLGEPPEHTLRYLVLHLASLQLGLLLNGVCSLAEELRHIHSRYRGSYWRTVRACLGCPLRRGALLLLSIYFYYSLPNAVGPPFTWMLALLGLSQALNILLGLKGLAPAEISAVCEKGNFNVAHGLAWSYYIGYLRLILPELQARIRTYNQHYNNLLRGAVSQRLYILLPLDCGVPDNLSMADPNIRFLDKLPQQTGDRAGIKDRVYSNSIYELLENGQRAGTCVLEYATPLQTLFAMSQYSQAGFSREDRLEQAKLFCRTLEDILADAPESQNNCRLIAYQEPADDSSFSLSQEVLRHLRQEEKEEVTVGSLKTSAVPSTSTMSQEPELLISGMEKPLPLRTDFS

In the case of `O=c1c(CN(CCCn2ccnc2)Cc2ccncc2)coc2ccc(F)cc12` [Example 29, 6-fluoro-3-({[3-(1H-imidazol-1-yl)propyl][(pyridin-4-yl)methyl]amino}methyl)-4H-chromen-4-one], the ΔTm at 50 µM on human STING is above 2.5 °C. Also, the EC50 was at most 10 µM in assay [1] and 10 to 20 µM in assay [2].
The matching figures for `CCn1cc(CN(CCCn2ccnc2)Cc2ccncc2)c(=O)c2ccccc21` [Example 43, 1-ethyl-3-({[3-(1H-imidazol-1-yl)propyl](pyridin-4-ylmethyl)amino}methyl)-1,4-dihydroquinolin-4-one]: below 2.5 °C, at least 20 µM and at least 20 µM.
With `Cc1oc2cc(N3CCN(C)CC3)c(F)cc2c(=O)c1CN(CCCc1cccnc1)Cc1ccncc1` [Example 65, 6-fluoro-2-methyl-7-(4-methylpiperazin-1-yl)-3-({[3-(pyridin-3-yl)propyl][(pyridin-4-yl)methyl]amino}methyl)-4-chromen-4-one], on human STING, the shift in melting temperature (ΔTm) at 50 µM is above 2.5 °C. The EC50 in assay [1] and in assay [2] was at most 10 µM throughout.
For the compound `Cc1oc2ccccc2c(=O)c1CN(CCCc1cccnc1)Cc1ccncc1` [Example 41, 2-methyl-3-({[3-(pyridin-3-yl)propyl][(pyridin-4-yl)methyl]amino}methyl)-4H-chromen-4-one], on human STING, the ΔTm at 50 µM was above 2.5 °C. Also, the EC50 in assay [1] and in assay [2] was 10 to 20 µM in each case.
On to `O=c1c(CN(CCCc2cncc3ccccc23)Cc2ccncc2)coc2c1ccc1ccccc12` [Example 61, 3-({[3-(isoquinolin-4-yl)propyl][(pyridin-4-yl)methyl]amino}methyl)-4H-benzo[h]chromen-4-one], for which, on human STING, the ΔTm at 50 µM is below 2.5 °C. Further, the EC50 in assay [1] and in assay [2] was at least 20 µM each time.
For the compound `O=c1c(CN(CCCn2cnc3ccccc32)Cc2ccncc2)coc2c1ccc1ccccc12` [Example 50, 3-({[3-(1H-1,3-benzodiazol-1-yl)propyl][(pyridin-4-yl)methyl]amino}methyl)-4H-benzo[h]chromen-4-one], the ΔTm at 50 µM on human STING was above 2.5 °C. Also, the EC50 in assay [1] and in assay [2] was at most 10 µM each time.
Take `COc1cc(CN(CCCc2cccnc2)Cc2n[nH]c3ccccc3c2=O)ccn1` [Example 98, 3-({[(2-methoxypyridin-4-yl)methyl][3-(pyridin-3-yl)propyl]amino}methyl)-1,4-dihydrocinnolin-4-one]: the ΔTm at 50 µM at human STING is above 2.5 °C. In addition, the EC50 in assay [1] is 10 to 20 µM; in assay [2], at least 20 µM.
The matching figures for `COc1cc(CN(CCCn2cnc3cncnc32)Cc2c(C)oc3cc(Br)c(F)cc3c2=O)ccn1` [Example 78, 7-bromo-6-fluoro-3-({[(2-methoxypyridin-4-yl)methyl][3-(9H-purin-9-yl)propyl]amino}methyl)-2-methyl-4H-chromen-4-one]: above 2.5 °C, at most 10 µM and at most 10 µM.
Regarding `COc1cc(CN(Cc2cn(C)c3ccccc3c2=O)C(C)CCc2cccnc2)ccn1` (stereo not drawn) [Example 97, 3-({[(2-methoxypyridin-4-yl)methyl][4-(pyridin-3-yl)butan-2-yl]amino}methyl)-1-methyl-1,4-dihydroquinolin-4-one], the ΔTm at 50 µM at human STING was above 2.5 °C. Further, the EC50 in assay [1] and in assay [2] was at most 10 µM in each case.
With `O=c1c(CN(CCCc2ccncc2)Cc2ccncc2)coc2ccccc12` [Example 21, 3-({[(pyridin-4-yl)methyl][3-(pyridin-4-yl)propyl]amino}methyl)-4H-chromen-4-one], the ΔTm at 50 µM at human STING was above 2.5 °C. Besides, the EC50 is at most 10 µM in assay [1] and 10 to 20 µM in assay [2].
On to `COc1ccc(CCCN(Cc2ccncc2)Cc2c(C)oc3c(C)c(C)ccc3c2=O)cn1` [Example 66, 3-({[3-(6-methoxypyridin-3-yl)propyl](pyridin-4-ylmethyl)amino}methyl)-2,7,8-trimethyl-4H-chromen-4-one], for which, at human STING, the shift in melting temperature (ΔTm) at 50 µM is below 2.5 °C. For the same compound, the EC50 in assay [1] and in assay [2] was at most 10 µM throughout.
In the case of `Cc1ccc2c(=O)c(CN(CCCn3cccc3)Cc3ccncc3)coc2c1C` [Example 15, 7,8-dimethyl-3-{[(pyridin-4-ylmethyl)[3-(1H-pyrrol-1-yl)propyl]amino]methyl}-4H-chromen-4-one], the ΔTm at 50 µM at human STING is below 2.5 °C. For the same compound, the EC50 in assay [1] and in assay [2] was at least 20 µM each time.
`O=c1c(CN(CCCn2ccnn2)Cc2ccncc2)coc2cc(Br)ccc12` [Example 22, 7-bromo-3-{[(pyridin-4-ylmethyl)[3-(1H1,2,3-triazol-1-yl)propyl]amino]methyl}-4H-chromen-4-one]: the ΔTm at 50 µM at human STING is below 2.5 °C. Besides, the figures for the EC50 in assay [1] and in assay [2] were 10 to 20 µM and at least 20 µM, respectively.
The matching figures for `COc1cc(CN(CCCn2cnc3ccccc32)Cc2coc3c(ccc4ccccc43)c2=O)ccn1` [Example 53, 3-({[3-(1H-1,3-benzodiazol-1-yl)propyl][(2-methoxypyridin-4-yl)methyl]amino}methyl)-4H-benzo[h]chromen-4-one]: above 2.5 °C, at most 10 µM and at most 10 µM.
The matching figures for `COc1ccc(-c2cc3occ(CN(CCCn4ccnc4)Cc4ccncc4)c(=O)c3cc2F)cc1` [Example 42, 6-fluoro-3-({[3-(1H-imidazol-1-yl)propyl][(pyridin-4-yl)methyl]amino}methyl)-7-(4-methoxyphenyl)-4H-chromen-4-one]: above 2.5 °C, at most 10 µM and at most 10 µM.
For the compound `COc1ccccc1-c1ccc2c(=O)c(CN(CCCn3ccnc3)Cc3ccncc3)coc2c1` [Example 39, 3-({[3-(1H-imidazol-1-yl)propyl][(pyridin-4-yl)methyl]amino}methyl)-7-(2-methoxyphenyl)-4H-chromen-4-one], the thermal shift (ΔTm) at 50 µM on human STING was above 2.5 °C. Also, the EC50 is at most 10 µM in assay [1] and 10 to 20 µM in assay [2].
For `COc1cc(CN(CCCn2ccnc2)Cc2c(C)oc3ccccc3c2=O)ccn1` [Example 46, 3-({[3-(1H-imidazol-1-yl)propyl][(2-methoxypyridin-4-yl)methyl]amino}methyl)-2-methyl-4H-chromen-4-one], at human STING, the ΔTm at 50 µM was below 2.5 °C. Also, the values for the EC50 in assay [1] and in assay [2] were at most 10 µM and at least 20 µM, respectively.
With `O=c1c(CN(CCCn2cnc3ccccc32)Cc2ccncc2F)coc2c1ccc1ccccc12` [Example 85, 3-({[3-(1H-1,3-benzodiazol-1-yl)propyl][(3-fluoropyridin-4-yl)methyl]amino}methyl)-4H-benzo[h]chromen-4-one], the ΔTm at 50 µM on human STING was below 2.5 °C. In addition, the EC50 in assay [1] and in assay [2] was at least 20 µM throughout.
As for `Cc1oc2ccccc2c(=O)c1CN(CCCn1ccnc1)Cc1ccncc1` [Example 36, 3-({[3-(1H-imidazol-1-yl)propyl][(pyridin-4-yl)methyl]amino}methyl)-2-methyl-4H-chromen-4-one], at human STING, the ΔTm at 50 µM is above 2.5 °C. The EC50 in assay [1] was at most 10 µM; in assay [2] it was 10 to 20 µM.
With `O=c1c(CN(CCCCn2ccnc2)Cc2ccncc2)coc2ccccc12` [Example 1, 3-({[4-(1H-imidazol-1-yl)butyl](pyridin-4-ylmethyl)amino}methyl)-4H-chromen-4-one], the ΔTm at 50 µM at human STING is below 2.5 °C. In addition, the EC50 was 10 to 20 µM in assay [1] and at least 20 µM in assay [2].

What is called ΔTm is the change in melting temperature against a reference sample. As a reminder, the EC50 is the concentration needed to bring the measured effect to its halfway point.
